# Test results as given in patent US20240299321A1, “METHODS TO SENSITIZE CANCER CELLS AND STANDARDIZED SCREENING ASSAY FOR IMMUNOTHERAPY” (THE TRUSTEES OF INDIANA UNIVERSITY, priority 2020, published 2024).
# Columns and labels:
# EO771 tumors = assay: EO771 orthotopic breast tumor model in immunocompetent C57BL/6 mice; type: in vivo; details: for expression of GZMB, IFNγ and TNFα in the tumor-infiltrated CD8+ T cells / tumor infiltration of T cells (total CD3+, CD4+ and CD8+): 20 mg kg-1; for expression of GZMB, IFNγ and TNFα in the tumor-infiltrated CD8+ T cells: FIG. 3E; for tumor infiltration of T cells (total CD3+, CD4+ and CD8+): flow cytometry; for tumor growth and weight: 20 mg kg-1 i.p., 3 times/week for 2 weeks; for tumor growth and weight / tumor cell proliferation (Ki67+): vs control group; for numbers of apoptotic tumor cells (cleaved Caspase 3+) / tumor cell proliferation (Ki67+): IHC of tumor tissue; for anti-tumor activity after depletion of CD4+ T cells: anti-CD4 10 mg kg-1 + drug 20 mg kg-1; for anti-tumor activity after depletion of CD8+ T cells: anti-CD8 10 mg kg-1 + drug 20 mg kg-1; for IFNγ and TNFα secretion by CD8+ T cells of drug-treated tumors: upon stimulation (PMA and ionomycin)
# Description: T cell effector function analysis: We measured cytokine and cytolytic granule production (IFNγ, GZMB and TNFα) of CD8+ T cells from mouse tumor samples and tumor organoid-T cell co-culture. Briefly, CD8+ T cells were placed into the 24-well plate at 1×10^6 cells/well, stimulated with 1 μM ionomycin and 50 ng ml-1 phorbol 12-myristate 13-acetate (PMA) (Sigma-Aldrich) for 4 h, in the presence of 5 μg ml-1 Brefeldin A (BFA), with the purpose to amplify the expression of intracellular cytokines61. The cells were stained with APC/Cy7-conjugated anti-CD8a (Biolegend) for 15 min and then fixed by 4% PFA. After washing, cells were stained with PerCP/Cy7-conjugated anti-GZMB, APC-conjugated anti-IFNγ and PE-conjugated anti-TNFα (Biolegend) for 15 min. In flow cytometric analyses, T cells stained with isotype control antibodies were used as negative controls for gating the cytokine or granule-producing cells. For T cells from tumor organoid-T cell co-culture, tumor organoids were first digested into single cells with TrypLE Express at 37° C. before APC/Cy7-conjugated anti-CD8a staining. In the IFNγ and TNFα secretion assay (Biolegend), T cells were stimulated with ionomycin and PMA without the presence of BFA. The media were collected for ELISA assay.
# Immunohistochemistry (IHC) and Immunofluorescence (IF) analysis of tumor organoids: Tumor organoids were gently centrifuged at 100 rcf from organoid culture medium and then embedded in 2% agar. Tumor organoids were fixed in 4% paraformaldehyde solution for overnight at room temperature. The samples were replaced with 70% ethanol and later embedded in paraffin blocks. Paraffin sections were cut at 5 μm thickness, attached on slides, heated at 60° C. for 1 h and then overnight at 37° C. The slides were stained with hematoxylin and eosin (H&E). IHC staining follows the protocol described62. Mouse-specific antibodies for CD8α (Cell Signaling Technology, clone D4W2Z, 1:400 dilution), cleaved caspase3 (Cell Signaling Technology, clone D175, 1:400 dilution) and Ki67 (Cell Signaling Technology, clone D3B5, 1:400 dilution) were used for IHC staining. The DAB peroxidase substrate kit (Vector laboratories Inc.) was used to visualize the antibodies. For IF analysis, the sample slides were blocked 3% BSA for 40 min after hydration. The slides were stained with primary antibodies including EpCAM (Abcam, 1:400 dilution), FITC-conjugated anti-α-SMA (Genetex, 1:400 dilution) and AF594-conjugated anti-CD31 (Biolegend) for 1 h. For EpCAM staining, the slide was further stained with secondary antibody Alexa Fluor 647-conjugated anti-rabbit IgG (Biolegend, 1:200) for 40 min. The fluorescence images were captured under a Leica DM4B microscope.
# Animal studies: All animal experiments were performed in accordance with the National Institutes of Health's Animal Use Guidelines and protocols approved by the Animal Care and Use Committee of Indiana University School of Medicine. To examine the tumorigenic potential of tumor organoids, tumor organoids with different sizes (diameter of 30-70, 70-150, and 150-500 μm) were orthotopically injected into fat pad of the 4th mammary gland in female C57BL/6 mice. Each mouse was injected with a total of 2×10^5 tumor cells. 5 mice were used in each group. Tumors were measured in two dimensions using a manual caliper. Tumor volume was calculated using the following formula: V=0.5×length×width×width. Tumor volume was measured every 3 days. Tumors were harvested 22 days after injection. The tumor growth, volume and weight were analyzed. To evaluate the anti-tumor effect of drugs in immunocompetent C57BL/6 mice and immunodeficient nude (NU/J) mice, 2×10^5 EO771 cells were orthotopically injected into fat pad of the 4th mammary gland in female mice. […]
# OVA+ EO771 cells = assay: H-2Kb presentation on OVA+ EO771 cells (flow cytometry, confocal); type: cell-based, mouse; details: for H-2Kb antigen presentation (confocal images): 1 μM, 48 h, FIG. 4E; for H-2Kb levels on EO771 cells (MFI): flow cytometry
# Description: (§1) Flow Cytometry: Sample acquisition was done using LSR Fortessa X-20 or LSR Fortessa (BD Biosciences) and data were analyzed using FlowJo v10.6.0 software. Live/dead cells were assessed using SYTOX Blue (Invitrogen, Dilution 1:100). For cell staining involving cell permeabilization, the BD cytofix/cytoperm fixation permeabilization kit (BD Biosciences) was used. The PBS buffer containing 0.5% BSA and 10% FBS were used to dilute antibodies. The antibodies used in flow cytometrical analyses include: […] The compensation was performed using CompBeads for negative control (BD Biosciences), anti-mouse Ig,κ (BD Biosciences), anti-rat Ig,κ and anti-hamster Ig,κ (BD Biosciences). The beads were stained with the corresponding antibodies separately under the same conditions as the cells were stained in each experiment. SYTOX Blue reagent was used to stain dead cells. Half of the live cells were incubated at 60° C. for 2 min to enable membrane permeable and then mixed with the other half incubated at 37° C. The mixed cells were stained with SYTOX Blue for 15 mins and used for compensation. For all the data analysis, doublet exclusion was performed and only single cells were analyzed. Dead cell populations were also excluded from analysis if the experiment were not involved in cell killing. One million events per sample were collected for immune profiling analysis in the animal experiments. For all in vitro experiments, at least ten thousand events per sample were collected for flow cytometry analysis. Confocal Microscopy: OVA+ EO771 and NY-ESO-1+ MDA-MB-468 cells were seeded at 5×10^3 cell/well in the 8-well slide (Millicell EZ slide, […]) and treated with 1 μM drug (GSK-LSD1, CUDC-101 or BML-210) for 48 h. FITC-conjugated anti-mouse H-2Kb antibody (Biolegend, dilution 1:50) and FITC-conjugated anti-HLA-A2 (Biolegend, dilution 1:50) were used to stain OVA+ EO771 and NY-ESO-1+ MDA-MB-468 cells, respectively, for 2 h. For cell nucleus staining, cells were incubated with 0.5% Triton X-100/PBS for 10 min and stained with DAPI (Sigma-Aldrich, dilution 1:100) for 15 min. The slides were rinsed in PBS twice and mounted with ProLong Gold anti-fade mountant (Invitrogen, P36930). Fluorescence images were captured using Leica TCS SP8 (upright high speed multiphoton) confocal imaging system. 3-D images were analyzed by the Imaris x64 8.1.2 software.
# [1] = system: NY-ESO-1+ MDA-MB-468 cells; assay: HLA presentation on NY-ESO-1+ MDA-MB-468 cells (flow cytometry, confocal); type: cell-based, human; details: for HLA-A2 antigen presentation (confocal images): 1 μM, 48 h, FIG. 4F; for HLA levels on MDA-MB-468 cells (MFI): flow cytometry
# Description: as §1
Compound,"expression of GZMB, IFNγ and TNFα in the tumor-infiltrated CD8+ T cells (EO771 tumors)","tumor infiltration of T cells (total CD3+, CD4+ and CD8+) (EO771 tumors)",tumor growth and weight (EO771 tumors),numbers of apoptotic tumor cells (cleaved Caspase 3+) (EO771 tumors),tumor cell proliferation (Ki67+) (EO771 tumors),anti-tumor activity after depletion of CD4+ T cells (EO771 tumors),anti-tumor activity after depletion of CD8+ T cells (EO771 tumors),anti-tumor activity relative to the other candidates (EO771 tumors; in vitro and in vivo assays),IFNγ and TNFα secretion by CD8+ T cells of drug-treated tumors (EO771 tumors),H-2Kb antigen presentation (confocal images) (OVA+ EO771 cells),H-2Kb levels on EO771 cells (MFI) (OVA+ EO771 cells),HLA-A2 antigen presentation (confocal images) [1],HLA levels on MDA-MB-468 cells (MFI) [1],cytotoxicity of the CD8+ T cells in the tumors (EO771 tumors; immune analyses of treated tumors)
Nc1ccccc1NC(=O)CCCCCCC(=O)Nc1ccccc1 [BML-210],up-regulated,higher tumor infiltration,significantly suppressed,increased,markedly lower,did not have much effect,abolished the anti-tumor activity,most potent anti-tumor activity,secreted more IFNγ and TNFα,boosted up the antigen presentation,much higher levels,boosted up the antigen presentation,much higher levels,–
C#Cc1cccc(Nc2ncnc3cc(OC)c(OCCCCCCC(=O)NO)cc23)c1 [CUDC-101],up-regulated,higher tumor infiltration,significantly suppressed,increased,markedly lower,did not have much effect,abolished the anti-tumor activity,–,secreted more IFNγ and TNFα,boosted up the antigen presentation,increased,boosted up the antigen presentation,increased,–
c1ccc([C@@H]2C[C@H]2NC2CCNCC2)cc1 [GSK-LSD1],–,higher tumor infiltration of T cells,markedly suppressed,increased,much lower,–,–,–,–,boosted up the antigen presentation,increased,boosted up the antigen presentation,increased,enhanced cytotoxicity of the CD8+ T cells
